From ChEMBL document CHEMBL4382217 (Bioorg Med Chem, 2018)

Key:
[1] = Selectivity index, ratio of IC50 for human Calu3 cells harboring WT EGFR to IC50 for human PC9 cells harboring EGFR mutant
HCC827 [2] = test: Antitumor activity against human HCC827 cells harboring EGFR exon-19 del mutant xenografted in castrated nude mouse assessed as tumor growth inhibition at 3 mg/kg, po daily for 14 consecutive days measured on day 15 relative to control; type: functional; conditions: 360 h, read-out: TGI
[3] = (§1) Antiproliferative activity against human A431 cells harboring WT EGFR after 72 hrs by MTS assay; type: cell-based, A-431; conditions: human, A431 cells harboring WT EGFR
A-431 = test: as §1; type: cell-based; conditions: Homo sapiens, A-431, 72 h
HCC827 [4] = test: Antitumor activity against human HCC827 cells harboring EGFR exon-19 del mutant xenografted in castrated nude mouse assessed as tumor growth inhibition at 0.3 mg/kg, po daily for 14 consecutive days measured on day 15 relative to control; type: functional; conditions: 360 h, read-out: TGI
[5] = target: T1, Epidermal growth factor receptor (Homo sapiens, UniProt P00533); test: Inhibition of WT EGFR phosphorylation at Y1068 residue in human A431 cells up to 10 uM after 4 hrs by Western blot analysis; type: cell-based
T1 sequence (P00533 whole entry): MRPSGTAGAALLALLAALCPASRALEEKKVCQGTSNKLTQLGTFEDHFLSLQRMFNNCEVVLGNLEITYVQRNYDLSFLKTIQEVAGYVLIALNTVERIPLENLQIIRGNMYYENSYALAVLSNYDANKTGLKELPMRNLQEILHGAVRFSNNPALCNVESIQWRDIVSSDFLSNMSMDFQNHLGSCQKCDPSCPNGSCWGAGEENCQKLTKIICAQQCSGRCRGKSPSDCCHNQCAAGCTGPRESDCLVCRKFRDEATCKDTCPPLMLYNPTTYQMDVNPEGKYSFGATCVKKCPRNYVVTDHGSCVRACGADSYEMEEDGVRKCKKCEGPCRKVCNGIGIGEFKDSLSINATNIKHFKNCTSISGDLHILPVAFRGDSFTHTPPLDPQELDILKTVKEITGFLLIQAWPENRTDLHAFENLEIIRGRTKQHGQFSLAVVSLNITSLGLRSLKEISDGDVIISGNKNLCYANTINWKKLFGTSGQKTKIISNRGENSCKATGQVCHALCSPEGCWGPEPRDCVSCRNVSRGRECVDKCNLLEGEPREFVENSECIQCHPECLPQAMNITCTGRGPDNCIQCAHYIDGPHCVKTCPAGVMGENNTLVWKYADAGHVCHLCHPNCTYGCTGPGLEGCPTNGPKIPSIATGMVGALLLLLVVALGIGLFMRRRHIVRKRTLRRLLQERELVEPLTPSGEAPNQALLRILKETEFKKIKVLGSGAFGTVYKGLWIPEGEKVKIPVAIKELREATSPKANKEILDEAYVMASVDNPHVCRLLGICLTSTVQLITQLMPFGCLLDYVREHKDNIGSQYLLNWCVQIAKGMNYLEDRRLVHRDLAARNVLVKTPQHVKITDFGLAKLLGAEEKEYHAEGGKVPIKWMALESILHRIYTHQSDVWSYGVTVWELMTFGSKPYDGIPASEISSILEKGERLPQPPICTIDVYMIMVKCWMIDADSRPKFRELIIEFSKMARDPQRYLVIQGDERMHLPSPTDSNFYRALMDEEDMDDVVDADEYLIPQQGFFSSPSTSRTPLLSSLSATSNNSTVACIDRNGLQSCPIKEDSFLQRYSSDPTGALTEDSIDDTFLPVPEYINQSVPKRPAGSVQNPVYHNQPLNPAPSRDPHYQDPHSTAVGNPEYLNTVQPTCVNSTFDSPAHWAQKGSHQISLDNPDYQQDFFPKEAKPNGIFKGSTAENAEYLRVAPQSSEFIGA

NCI-H1975 [6] = test: Antitumor activity against human NCI-H1975 cells harboring EGFR T790M/L858R double mutant xenografted in castrated nude mouse assessed as tumor growth inhibition at 10 mg/kg, po daily for 14 consecutive days measured on day 15 relative to control; type: functional; conditions: 360 h, read-out: TGI
HCC827 [7] = test: Antitumor activity against human HCC827 cells harboring EGFR exon-19 del mutant xenografted in castrated nude mouse assessed as tumor growth inhibition at 1 mg/kg, po daily for 14 consecutive days measured on day 15 relative to control; type: functional; conditions: 360 h, read-out: TGI
PC-9 [8] = test: Antiproliferative activity against human PC9 cells harboring EGFR mutant after 72 hrs by MTS assay; type: functional, cell-based; conditions: PC-9, 72 h
[9] = Toxicity in castrated nude mouse xenografted with human NCI-H1975 cells assessed as body weight loss at 5 to 40 mg/kg, po daily for 14 consecutive days; type: organism-based; conditions: in vivo
[10] = target: T1, Epidermal growth factor receptor; test: Inhibition of recombinant human N-terminal GST-tagged EGFR (696-end residues) expressed in baculovirus expression system using Srctide as substrate by fluorescence assay
[11] = Selectivity index, ratio of IC50 for human Calu3 cells harboring WT EGFR to IC50 for human NCI-H1975 cells harboring EGFR T790M/L858R double mutant
PC-9 [12] = test: Antitumor activity against human PC9 cells harboring EGFR exon-19 del mutant xenografted in castrated nude mouse assessed as tumor growth inhibition at 5 mg/kg, po daily for 14 consecutive days measured on day 15 relative to control; type: functional; conditions: PC-9, po, 360 h, read-out: TGI
HCC827 [13] = test: Antitumor activity against human HCC827 cells harboring EGFR exon-19 del mutant xenografted in castrated nude mouse assessed as tumor growth inhibition administered orally daily for 14 consecutive days measured on day 15; type: functional, cell-based
NCI-H1975 [14] = test: Antitumor activity against human NCI-H1975 cells harboring EGFR T790M/L858R double mutant xenografted in castrated nude mouse assessed as tumor growth inhibition at 40 mg/kg, po daily for 14 consecutive days measured on day 15 relative to control; type: functional; conditions: 360 h, read-out: TGI
Calu-3 = test: Antiproliferative activity against human Calu3 cells harboring WT EGFR after 72 hrs by MTS assay; type: cell-based; conditions: Calu-3, 72 h
PC-9 [15] = test: Antitumor activity against human PC9 cells harboring EGFR exon-19 del mutant xenografted in castrated nude mouse assessed as tumor growth inhibition at 20 mg/kg, po daily for 14 consecutive days measured on day 15 relative to control; type: functional; conditions: PC-9, po, 360 h, read-out: TGI
NCI-H1975 [16] = test: Antitumor activity against human NCI-H1975 cells harboring EGFR T790M/L858R double mutant xenografted in castrated nude mouse assessed as tumor growth inhibition administered orally daily for 14 consecutive days measured on day 15; type: functional, cell-based
HCC827 [17] = test: Antiproliferative activity against human HCC827 cells harboring EGFR mutant after 72 hrs by MTS assay; type: functional, cell-based; conditions: HCC827, 72 h
PC-9 [18] = test: Antitumor activity against human PC9 cells harboring EGFR exon-19 del mutant xenografted in castrated nude mouse assessed as tumor growth inhibition at 10 mg/kg, po daily for 14 consecutive days measured on day 15 relative to control; type: functional; conditions: Mus musculus, PC-9, po, 360 h; read-out: TGI
[19] = Selectivity index, ratio of IC50 for human Calu3 cells harboring WT EGFR to IC50 for human HCC827 cells harboring EGFR mutant
[20] = target: T1, Epidermal growth factor receptor; test: Inhibition of WT EGFR in human A431 cells assessed as reduction in ERK phosphorylation at T202/Y204 residues up to 10 uM after 4 hrs by Western blot analysis; type: cell-based
NCI-H1975 [21] = test: Antitumor activity against human NCI-H1975 cells harboring EGFR T790M/L858R double mutant xenografted in castrated nude mouse assessed as tumor growth inhibition at 5 mg/kg, po daily for 14 consecutive days measured on day 15 relative to control; type: functional; conditions: 360 h, read-out: TGI
Homo sapiens = species on record: Homo sapiens; test: Selectivity index, ratio of IC50 for recombinant human N-terminal GST-tagged EGFR (696-end residues) expressed in baculovirus expression system to IC50 for recombinant human N-terminal GST-tagged EGFR T790M/L858R double mutant (696-end residues)
[22] = target: Epidermal growth factor receptor (Homo sapiens, UniProt P00533, L858R/T790M); test: Inhibition of recombinant human N-terminal GST-tagged EGFR T790M/L858R double mutant (696-end residues) by fluorescence assay
Sequence of Epidermal growth factor receptor (Homo sapiens, UniProt P00533, L858R/T790M) (P00533 25-1210 T790M/L858R limits assumed): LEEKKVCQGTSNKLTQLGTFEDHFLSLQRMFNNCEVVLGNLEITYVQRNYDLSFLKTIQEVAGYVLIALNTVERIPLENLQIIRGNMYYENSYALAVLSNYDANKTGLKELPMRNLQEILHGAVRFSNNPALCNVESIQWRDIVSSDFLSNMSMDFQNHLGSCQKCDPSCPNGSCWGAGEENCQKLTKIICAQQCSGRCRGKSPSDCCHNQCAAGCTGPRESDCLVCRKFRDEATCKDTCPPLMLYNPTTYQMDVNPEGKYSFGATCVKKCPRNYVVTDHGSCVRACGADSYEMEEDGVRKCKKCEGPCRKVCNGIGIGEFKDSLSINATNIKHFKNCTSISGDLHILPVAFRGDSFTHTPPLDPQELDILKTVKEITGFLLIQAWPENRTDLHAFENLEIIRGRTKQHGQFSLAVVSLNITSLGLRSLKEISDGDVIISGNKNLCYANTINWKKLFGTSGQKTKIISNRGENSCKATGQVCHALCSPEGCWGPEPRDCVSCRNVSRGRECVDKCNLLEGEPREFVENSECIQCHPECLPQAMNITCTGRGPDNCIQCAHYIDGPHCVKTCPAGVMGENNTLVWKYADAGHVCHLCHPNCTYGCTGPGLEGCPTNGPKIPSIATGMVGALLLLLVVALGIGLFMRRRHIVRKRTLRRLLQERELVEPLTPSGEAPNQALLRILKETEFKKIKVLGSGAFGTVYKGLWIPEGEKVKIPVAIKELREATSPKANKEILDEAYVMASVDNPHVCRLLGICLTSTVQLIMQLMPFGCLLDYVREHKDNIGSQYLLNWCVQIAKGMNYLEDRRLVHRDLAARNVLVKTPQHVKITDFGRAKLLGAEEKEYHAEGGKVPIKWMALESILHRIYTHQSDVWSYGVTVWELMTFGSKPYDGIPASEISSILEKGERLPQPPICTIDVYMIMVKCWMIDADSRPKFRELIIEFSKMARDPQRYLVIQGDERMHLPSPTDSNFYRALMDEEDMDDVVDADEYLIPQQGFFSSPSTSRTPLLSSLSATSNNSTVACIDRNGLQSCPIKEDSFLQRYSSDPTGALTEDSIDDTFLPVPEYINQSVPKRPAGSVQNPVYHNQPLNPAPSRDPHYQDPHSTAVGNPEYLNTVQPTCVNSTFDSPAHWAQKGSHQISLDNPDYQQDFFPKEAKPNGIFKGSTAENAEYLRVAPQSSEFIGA

NCI-H1975 [23] = test: Antitumor activity against human NCI-H1975 cells harboring EGFR T790M/L858R double mutant xenografted in castrated nude mouse assessed as tumor growth inhibition at 20 mg/kg, po daily for 14 consecutive days measured on day 15 relative to control; type: functional; conditions: Mus musculus, NCI-H1975, po, 360 h; read-out: TGI
[24] = Selectivity index, ratio of GI50 for human A431 cells harboring WT EGFR to GI50 for human NCI-H1975 cells harboring EGFR T790M/L858R double mutant
PC-9 [25] = test: Antitumor activity against human PC9 cells harboring EGFR exon-19 del mutant xenografted in castrated nude mouse assessed as tumor growth inhibition at 2 mg/kg, po daily for 14 consecutive days measured on day 15 relative to control; type: functional; conditions: PC-9, po, 360 h, read-out: TGI
[26] = Selectivity index, ratio of IC50 for human A431 cells harboring WT EGFR to IC50 for human NCI-H1975 cells harboring EGFR T790M/L858R double mutant
[27] = target: Epidermal growth factor receptor (Homo sapiens, UniProt P00533, L858R); test: Inhibition of recombinant human GST-tagged EGFR L858R mutant expressed in baculovirus expression system by fluorescence assay
Sequence of Epidermal growth factor receptor (Homo sapiens, UniProt P00533, L858R) (P00533 25-1210 L858R limits assumed): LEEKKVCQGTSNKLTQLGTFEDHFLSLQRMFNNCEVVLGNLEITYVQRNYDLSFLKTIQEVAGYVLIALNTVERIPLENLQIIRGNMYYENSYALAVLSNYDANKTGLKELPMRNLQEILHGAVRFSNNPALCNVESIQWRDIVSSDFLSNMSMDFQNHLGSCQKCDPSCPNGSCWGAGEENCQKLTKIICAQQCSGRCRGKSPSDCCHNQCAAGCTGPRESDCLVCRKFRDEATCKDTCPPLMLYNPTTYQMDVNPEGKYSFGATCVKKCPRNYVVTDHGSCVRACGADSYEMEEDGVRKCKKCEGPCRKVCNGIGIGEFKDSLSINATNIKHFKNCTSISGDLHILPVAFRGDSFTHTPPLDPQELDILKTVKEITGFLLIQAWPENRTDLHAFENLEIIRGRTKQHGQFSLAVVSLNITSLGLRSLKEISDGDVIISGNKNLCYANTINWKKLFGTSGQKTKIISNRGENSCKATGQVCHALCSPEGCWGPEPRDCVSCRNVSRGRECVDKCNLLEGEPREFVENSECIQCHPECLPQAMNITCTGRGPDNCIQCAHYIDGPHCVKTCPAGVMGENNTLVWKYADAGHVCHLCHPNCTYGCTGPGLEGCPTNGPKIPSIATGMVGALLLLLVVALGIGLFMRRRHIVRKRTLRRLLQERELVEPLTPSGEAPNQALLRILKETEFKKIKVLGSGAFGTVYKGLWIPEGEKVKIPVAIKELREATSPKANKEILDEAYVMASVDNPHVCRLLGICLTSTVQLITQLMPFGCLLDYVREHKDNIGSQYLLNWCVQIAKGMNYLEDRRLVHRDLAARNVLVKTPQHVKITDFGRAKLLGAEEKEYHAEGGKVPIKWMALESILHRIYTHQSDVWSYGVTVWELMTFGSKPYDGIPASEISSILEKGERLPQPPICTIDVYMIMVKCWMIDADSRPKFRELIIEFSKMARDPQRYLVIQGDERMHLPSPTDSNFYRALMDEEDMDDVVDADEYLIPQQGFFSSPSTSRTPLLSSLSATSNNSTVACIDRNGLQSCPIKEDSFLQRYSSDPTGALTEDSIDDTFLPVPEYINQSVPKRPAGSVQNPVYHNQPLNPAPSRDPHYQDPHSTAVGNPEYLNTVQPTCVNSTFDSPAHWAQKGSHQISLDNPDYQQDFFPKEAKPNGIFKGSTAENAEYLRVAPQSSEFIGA

Calu-6 = test: Antiproliferative activity against human Calu6 cells harboring WT EGFR after 72 hrs by MTS assay; type: cell-based; conditions: Calu-6, 72 h
[28] = Toxicity in castrated nude mouse xenografted with human HCC827 cells assessed as body weight loss at 0.3 to 10 mg/kg, po daily for 14 consecutive days; type: organism-based; conditions: in vivo
[29] = Toxicity in castrated nude mouse xenografted with human PC9 cells assessed as body weight loss at 2 to 20 mg/kg, po daily for 14 consecutive days; type: organism-based; conditions: in vivo
NCI-H1975 [30] = test: Antiproliferative activity against human NCI-H1975 cells harboring EGFR T790M/L858R double mutant after 72 hrs by MTS assay; type: functional, cell-based; conditions: Homo sapiens, NCI-H1975, 72 h
[31] = Selectivity index, ratio of IC50 for human A431 cells harboring WT EGFR to IC50 for human PC9 cells harboring EGFR mutant
[32] = Selectivity index, ratio of IC50 for human A431 cells harboring WT EGFR to IC50 for human HCC827 cells harboring EGFR mutant
PC-9 [33] = test: Antitumor activity against human PC9 cells harboring EGFR exon-19 del mutant xenografted in castrated nude mouse assessed as tumor growth inhibition administered orally daily for 14 consecutive days measured on day 15; type: functional, cell-based
HCC827 [34] = test: Antitumor activity against human HCC827 cells harboring EGFR exon-19 del mutant xenografted in castrated nude mouse assessed as tumor growth inhibition at 10 mg/kg, po daily for 14 consecutive days measured on day 15 relative to control; type: functional; conditions: Mus musculus, HCC827, po, 360 h; read-out: TGI
[35] = Drug level in human liver microsomes treated with N-(2-((2-(Dimethylamino)ethyl)(methyl)amino)-4-methoxy-5-((4-(1-methyl-1H-pyrrolo[3,2-b]pyridin-3-yl)pyrimidin-2-yl)amino)phenyl)acrylamide by LC-MS/MS analysis; type: ADME, Microsome

In the case of `C=CC(=O)Nc1cc(Nc2nccc(-c3cn(C)c4cccnc34)n2)c(OC)cc1N(C)CCN(C)C`, the “Ratio IC50” value [1] is reported as 50, the inhibition in vivo at 3 mg/kg (HCC827 [2]) is reported as 119% and the GI50 at 72 h [3] is reported as 500 nM. For the same compound, the IC50 (A-431) was 3290 nM, the inhibition in vivo at 0.3 mg/kg (HCC827 [4]) was 74% and the “inhibition (INH)” value [5] was “Not Active”. It also gave an inhibition in vivo at 10 mg/kg (NCI-H1975 [6]) of 84%, an inhibition in vivo at 1 mg/kg (HCC827 [7]) of 83% and an IC50 (PC-9 [8]) of 200 nM. The Activity [9] was “Non-Toxic”, the IC50 [10] was 63000 nM and the “Ratio IC50” value [11] was 71.4. The inhibition in vivo at 5 mg/kg (PC-9 [12]) was 94%, the TGI (HCC827 [13]) was “Dose-dependent effect” and the inhibition in vivo at 40 mg/kg (NCI-H1975 [14]) was 106%. For the same compound, the IC50 (Calu-3) was over 10000 nM, the inhibition in vivo at 20 mg/kg (PC-9 [15]) was 107% and the TGI (NCI-H1975 [16]) was “Dose-dependent effect”. The IC50 (HCC827 [17]) was 15 nM, the inhibition in vivo at 10 mg/kg (PC-9 [18]) was 104% and the “Ratio IC50” value [19] was 666.7. The “inhibition (INH)” value [20] was “Not Active”, the inhibition in vivo at 5 mg/kg (NCI-H1975 [21]) was 48% and the Ratio IC50 (Homo sapiens) was 30. The IC50 [22] was 2100 nM, the inhibition in vivo at 20 mg/kg (NCI-H1975 [23]) was 99% and the RatioGI50 [24] was 73.5. For the same compound, the inhibition in vivo at 2 mg/kg (PC-9 [25]) was 67%, the “Ratio IC50” value [26] was 23.5 and the IC50 [27] was 5500 nM. For the same compound, the IC50 (Calu-6) was over 10000 nM, the Activity [28] was “Non-Toxic” and the Activity [29] was “Non-Toxic”. For the same compound, the GI50 (NCI-H1975 [30]) was 6.8 nM, the IC50 (NCI-H1975 [30]) was 140 nM and the “Ratio IC50” value [31] was 16.5. For the same compound, the “Ratio IC50” value [32] was 219.3, the TGI (PC-9 [33]) was “Dose-dependent effect” and the inhibition in vivo at 10 mg/kg (HCC827 [34]) was 125%.

For `C=CC(=O)Nc1cc(Nc2nccc(-c3cn(C)c4cccnc34)n2)c(OC)cc1NCCN(C)C`, the IC50 (A-431) was 6780 nM, the IC50 (PC-9 [8]) was 740 nM and the Drug metabolism [35] was “Metabolite_Detected”. It also gave an IC50 [10] of 77000 nM, an IC50 (Calu-3) of over 10000 nM and an IC50 (HCC827 [17]) of 75 nM. It also gave a Ratio IC50 (Homo sapiens) of 5.1, an IC50 [22] of 15000 nM and an IC50 [27] of 12000 nM. The IC50 (Calu-6) was over 10000 nM and the IC50 (NCI-H1975 [30]) was 790 nM.
